Like-named read-outs stand apart in the source and are kept apart here. Peptide text beside a SMILES is read from it.
Legend:
[1] = system: Acinetobacter baumannii NCTC 13420; format: cell-based
Experimental: (§1) Bacterial strains were acquired from the American Type Culture Collection (ATCC, Virginia, USA) and the National Collection of Type Cultures (NCTC, Public Health England, Salisbury, UK). Minimum Inhibitory Concentration (MIC) of peptides versus gram-negative strains-Acinetobacter baumannii NCTC 13420, and Pseudomonas aeruginosa ATCC 27853 and gram-positive strain Staphylococcus aureus ATCC 29213, were determined by broth microdilution as per the guidelines of the Clinical and Laboratory Standards Institute (“Methods for Dilution Antimicrobial Susceptibility Tests for Bacteria That Grow Aerobically”; Approved Standard-Ninth Edition. CLSI document M07-A9, 2012). Peptides were dissolved in sterile distilled water, which was also used as the drug-free vehicle control when determining peptide MICs. Prior to use in the MIC protocol, bacterial strains were grown on Mueller Hinton agar at 37° C. in an ambient atmosphere. […] A fixed inoculum of the test microorganism (5×10^5 cells/mL) is also added to the plate. The MIC is determined as the lowest concentration of compound that inhibits visible bacterial growth following incubation at 37° C. for 16-20 hours. A difference in MIC of two-fold between experimental replicates is considered to be within the normal variability of this protocol.

[2] = system: Pseudomonas aeruginosa ATCC 27853; format: cell-based
Experimental: as §1

[3] = system: Staphylococcus aureus ATCC 29213; format: cell-based
Experimental: as §1

[4] = Peptide hydrophobicity by RP-HPLC retention; format: physicochemical; details: Zorbax SB-300 C8, 0.25% B/min from 10% B, 0.3 ml/min, 30° C.
From the text: Retention behavior in RP-HPLC is an excellent method to represent overall peptide hydrophobicity. Retention times of peptides are highly sensitive to the conformational status of the peptides upon interaction with the hydrophobic environment of the column matrix^17,26. The non-polar faces of amphipathic alpha-helical and amphipathic cyclic beta-sheet peptides represent a preferred binding domain for interaction with the hydrophobic matrix of the reversed-phase column^27. In this study, the observed peptide hydrophobicity was determined by RP-HPLC retention time as described below and are relative hydrophobicities because they are dependent on the TFA concentration and organic solvent in the mobile phase, gradient rate, temperature, flow rate and the column used. Analytical Purification by Reversed-phase Chromatography: Analytical RP-HPLC: Column: Zorbax SB-300 C8 (150×2.1 mm ID; 5-μm particle size; 300 Å pore size). Conditions: linear AB gradient (0.25% B/min from 10% B) at a flow-rate of 0.3 ml/min, where Eluent A is 0.2% aq. TFA and Eluent B is 0.18% TFA in acetonitrile; 30° C.

[5] = system: Human erythrocytes; assay: Haemolysis assay using human blood; format: cell-based
Experimental: To determine the extent of haemolytic activity (the ability to lyse red blood cells) in test peptides, a haemolysis assay was conducted using human blood (BioIVT, West Sussex, UK). Human erythrocytes were exposed to a single fixed concentration or a range of concentrations as to determine the % haemolysis (fixed concentration) or the concentration at which 50% haemolysis occurred (HC50), respectively. Prior to the assay, whole human blood was repeatedly washed in phosphate buffered saline (PBS) under cooled conditions to remove the buffy coat, plasma and cell debris. Washed erythrocytes were diluted as to achieve 1×10^8 cells/mL in PBS. Prepared human erythrocyte samples were combined with peptide at a single fixed concentration of 128 μg/mL, or a range of concentrations (two-fold dilution series) from 1000-31.25 μg/mL. Positive and negative controls containing 2% (v/v) Triton X-100 and PBS alone, respectively, were also prepared. Samples were incubated at 37° C. for 1 hour and then centrifuged to collect intact erythrocytes. Haemoglobin release was determined by recording the optical density of the supernatant at 540 nm. Optical density values were transformed to a percentage of the positive control. Results were recorded as a percentage haemolysis at 128 μg/mL, or by plotting the percentage haemolysis versus concentration and extrapolating the HC50 using linear regression analysis (Table 2 above)
The therapeutic index is a widely-accepted parameter to represent the specificity of antimicrobial peptides for prokaryotic versus eukaryotic cells. It is calculated by the ratio of hemolytic activity and antimicrobial activity (MIC) (Table 2 above); thus, larger values of therapeutic index indicate greater specificity for prokaryotic cells. With the peptides used in this study the inventors used the HC50/MIC ratio value to calculate the therapeutic index.

[6] = system: Acinetobacter baumannii NCTC 13420; format: cell-based; details: CA-MHB supplemented with 20% human serum (v/v)
Experimental: Bacterial strains were acquired from the American Type Culture Collection (ATCC, Virginia, USA) and the National Collection of Type Cultures (NCTC, Public Health England, Salisbury, UK). Minimum Inhibitory Concentration (MIC) of peptides versus gram-negative strains-Acinetobacter baumannii NCTC 13420, and Pseudomonas aeruginosa ATCC 27853 and gram-positive strain Staphylococcus aureus ATCC 29213, were determined by broth microdilution as per the guidelines of the Clinical and Laboratory Standards Institute (“Methods for Dilution Antimicrobial Susceptibility Tests for Bacteria That Grow Aerobically”; Approved Standard-Ninth Edition. CLSI document M07-A9, 2012). Peptides were dissolved in sterile distilled water, which was also used as the drug-free vehicle control when determining peptide MICs. Prior to use in the MIC protocol, bacterial strains were grown on Mueller Hinton agar at 37° C. in an ambient atmosphere. […] A fixed inoculum of the test microorganism (5×10^5 cells/mL) is also added to the plate. The MIC is determined as the lowest concentration of compound that inhibits visible bacterial growth following incubation at 37° C. for 16-20 hours. A difference in MIC of two-fold between experimental replicates is considered to be within the normal variability of this protocol. […]

[7] = cation-adjusted Mueller Hinton broth, 37° C., 16-20 hours
[8] = human erythrocytes, 37° C., 1 hour

Compound	Antimicrobial Activity MIC A. baumannii NCTC13420 ([1]; NCTC 13420)	P. aeruginosa ATCC27853 MIC ([2]; ATCC 27853)	S. Aureus ATCC22213 MIC ([3]; ATCC 29213)	tR (relative hydrophobicity by RP-HPLC) [4]	Haemolysis HC50 ([5]; red cells of human, 1 h)	Antimicrobial Activity MIC A. baumannii NCTC13420 [1, 7]	P. aeruginosa ATCC27853 MIC [2, 7]	S. Aureus ATCC22213 MIC [3, 7]	Antimicrobial Activity MIC A. baumannii NCTC13420 plus 20% SERUM [6]	Haemolysis HC50 [5, 8]
CC(=O)N[C@H](CCCCN)C(=O)N[C@H](CC(C)C)C(=O)N[C@H](CCCCN)C(=O)N[C@H](CCCCN)C(=O)N[C@H](CC(C)C)C(=O)N[C@H](CC(C)C)C(=O)N[C@H](CCCCN)C(=O)N[C@H](CCCCN)C(=O)N[C@H](CC(C)C)C(=O)N[C@H](CO)C(=O)N[C@H](CO)C(=O)N[C@H](C)C(=O)N[C@H](CCCCN)C(=O)N[C@H](CO)C(=O)N[C@H](CO)C(=O)N[C@H](CCCCN)C(=O)N[C@H](CC(C)C)C(=O)N[C@H](CO)C(=O)N[C@@H](C(=O)N[C@H](CC(C)C)C(=O)N[C@H](CC(C)C)C(=O)N[C@H](CCCCN)C(=O)N[C@H](CCCCN)C(=O)N[C@H](CC(C)C)C(=O)N[C@H](CCCCN)C(=O)N[C@H](CCCCN)C(N)=O)[C@H](C)O [compound 3] (HELM PEPTIDE1{[ac].[dK].[dL].[dK].[dK].[dL].[dL].[dK].[dK].[dL].[dS].[dS].[dA].[dK].[dS].[dS].[dK].[dL].[dS].[dT].[dL].[dL].[dK].[dK].[dL].[dK].[dK].[am]}$$$$V2.0)	2 µg/mL	4 µg/mL	64 µg/mL	87.37 min	>2000 µg/mL					
CC(=O)N[C@H](CCCCN)C(=O)N[C@H](CC(C)C)C(=O)N[C@H](CCCCN)C(=O)N[C@H](CCCCN)C(=O)N[C@H](CC(C)C)C(=O)N[C@H](CC(C)C)C(=O)N[C@H](CCCCN)C(=O)N[C@H](CCCCN)C(=O)N[C@H](CC(C)C)C(=O)N[C@H](CO)C(=O)N[C@H](CO)C(=O)N[C@H](C)C(=O)N[C@H](CCCCN)C(=O)N[C@H](CO)C(=O)N[C@H](CO)C(=O)N[C@H](CCCCN)C(=O)N[C@H](CC(C)C)C(=O)N[C@H](CO)C(=O)N[C@H](CO)C(=O)N[C@H](CC(C)C)C(=O)N[C@H](CC(C)C)C(=O)N[C@H](CCCCN)C(=O)N[C@H](CCCCN)C(=O)N[C@H](CC(C)C)C(=O)N[C@H](CCCCN)C(=O)N[C@H](CCCCN)C(N)=O [compound 24] (HELM PEPTIDE1{[ac].[dK].[dL].[dK].[dK].[dL].[dL].[dK].[dK].[dL].[dS].[dS].[dA].[dK].[dS].[dS].[dK].[dL].[dS].[dS].[dL].[dL].[dK].[dK].[dL].[dK].[dK].[am]}$$$$V2.0)						1 µg/mL	2 µg/mL	64 µg/mL	2 µg/mL	>2000 µg/mL
CC(=O)N[C@H](C)C(=O)N[C@H](CC(C)C)C(=O)N[C@H](CCCCN)C(=O)N[C@H](CCCCN)C(=O)N[C@H](CC(C)C)C(=O)N[C@H](CC(C)C)C(=O)N[C@H](CCCCN)C(=O)N[C@H](CCCCN)C(=O)N[C@H](CC(C)C)C(=O)N[C@H](CO)C(=O)N[C@H](CO)C(=O)N[C@H](C)C(=O)N[C@H](CCCCN)C(=O)N[C@H](CO)C(=O)N[C@H](CO)C(=O)N[C@H](CCCCN)C(=O)N[C@H](CC(C)C)C(=O)N[C@H](CO)C(=O)N[C@H](CO)C(=O)N[C@H](CC(C)C)C(=O)N[C@H](CC(C)C)C(=O)N[C@H](CCCCN)C(=O)N[C@H](CCCCN)C(=O)N[C@H](CC(C)C)C(=O)N[C@H](CCCCN)C(=O)N[C@H](CCCCN)C(N)=O [compound 25] (HELM PEPTIDE1{[ac].[dA].[dL].[dK].[dK].[dL].[dL].[dK].[dK].[dL].[dS].[dS].[dA].[dK].[dS].[dS].[dK].[dL].[dS].[dS].[dL].[dL].[dK].[dK].[dL].[dK].[dK].[am]}$$$$V2.0)						2 µg/mL	4 µg/mL	128 µg/mL	4 µg/mL	>2000 µg/mL
CC(=O)N[C@H](CCCCN)C(=O)N[C@H](CC(C)C)C(=O)N[C@H](CCCCN)C(=O)N[C@H](CCCCN)C(=O)N[C@H](CC(C)C)C(=O)N[C@H](CC(C)C)C(=O)N[C@H](CCCCN)C(=O)N[C@H](CCCCN)C(=O)N[C@H](CC(C)C)C(=O)N[C@H](CCCCN)C(=O)N[C@H](CO)C(=O)N[C@H](C)C(=O)N[C@H](CCCCN)C(=O)N[C@H](CO)C(=O)N[C@H](CO)C(=O)N[C@H](CCCCN)C(=O)N[C@H](CC(C)C)C(=O)N[C@H](CO)C(=O)N[C@@H](C(=O)N[C@H](CC(C)C)C(=O)N[C@H](CC(C)C)C(=O)N[C@H](CO)C(=O)N[C@H](CCCCN)C(=O)N[C@H](CC(C)C)C(=O)N[C@H](CCCCN)C(=O)N[C@H](CCCCN)C(N)=O)[C@H](C)O [compound 6] (HELM PEPTIDE1{[ac].[dK].[dL].[dK].[dK].[dL].[dL].[dK].[dK].[dL].[dK].[dS].[dA].[dK].[dS].[dS].[dK].[dL].[dS].[dT].[dL].[dL].[dS].[dK].[dL].[dK].[dK].[am]}$$$$V2.0)	2 µg/mL	2 µg/mL	128 µg/mL		>2000 µg/mL					

Reference: US20200377561A1, “ANTIMICROBIAL PEPTIDES AND METHODS OF TREATING GRAM-NEGATIVE PATHOGEN INFECTIONS: POLAR AND NON-POLAR FACE ANALOGS” (THE REGENTS OF THE UNIVERSITY OF COLORADO, a body corporate, priority 2017, published 2020)
